Laboratory results published in PubChem BioAssay (NCI).
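Method: 48-hour compound exposure of cells in 96-well plates, five concentrations, linear interpolation of endpoints. GI50 is the concentration that inhibits growth by half. TGI: total growth inhibition.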

Key:
Experiment in all cases: NCI-60 cell line screen, 48 h
MDA-MB-468 breast = system: MDA-MB-468 breast
UO-31 renal = system: UO-31 renal
HCC-2998 colon = system: HCC-2998 colon
SF-539 CNS = system: SF-539 CNS
HCT-15 colon = system: HCT-15 colon
EKVX NSCLC = system: EKVX NSCLC
M14 melanoma = system: M14 melanoma
SK-OV-3 ovarian = system: SK-OV-3 ovarian
UACC-62 melanoma = system: UACC-62 melanoma
HOP-62 NSCLC = system: HOP-62 NSCLC
SF-295 CNS = system: SF-295 CNS
SNB-75 CNS = system: SNB-75 CNS
SK-MEL-28 melanoma = system: SK-MEL-28 melanoma
SN12C renal = system: SN12C renal
MOLT-4 leukemia = system: MOLT-4 leukemia
U251 CNS = system: U251 CNS
NCI-H226 lung = system: NCI-H226 lung
KM12 colon = system: KM12 colon
SW-620 colon = system: SW-620 colon
HL-60(TB) leukemia = system: HL-60(TB) leukemia
NCI-H460 lung = system: NCI-H460 lung
SR leukemia = system: SR leukemia
HS 578T breast = system: HS 578T breast
HT29 colon = system: HT29 colon
A549 NSCLC = system: A549 NSCLC
PC-3 prostate = system: PC-3 prostate
OVCAR-3 ovarian = system: OVCAR-3 ovarian
DU-145 prostate = system: DU-145 prostate
OVCAR-4 ovarian = system: OVCAR-4 ovarian
IGROV1 ovarian = system: IGROV1 ovarian
SF-268 CNS = system: SF-268 CNS
786-0 renal = system: 786-0 renal
SK-MEL-2 melanoma = system: SK-MEL-2 melanoma
NCI/ADR-RES ovarian = system: NCI/ADR-RES ovarian
HOP-92 NSCLC = system: HOP-92 NSCLC
NCI-H522 lung = system: NCI-H522 lung
MDA-MB-231 breast = system: MDA-MB-231 breast
RXF 393 renal = system: RXF 393 renal
SNB-19 CNS = system: SNB-19 CNS
UACC-257 melanoma = system: UACC-257 melanoma
CCRF-CEM leukemia = system: CCRF-CEM leukemia
SK-MEL-5 melanoma = system: SK-MEL-5 melanoma
K-562 leukemia = system: K-562 leukemia
LOX IMVI melanoma = system: LOX IMVI melanoma
CAKI-1 renal = system: CAKI-1 renal
MALME-3M melanoma = system: MALME-3M melanoma
MCF7 breast = system: MCF7 breast
OVCAR-5 ovarian = system: OVCAR-5 ovarian
HCT-116 colon = system: HCT-116 colon
A498 renal = system: A498 renal
TK-10 renal = system: TK-10 renal
RPMI-8226 leukemia = system: RPMI-8226 leukemia
BT-549 breast = system: BT-549 breast
MDA-MB-435 = system: MDA-MB-435
NCI-H23 lung = system: NCI-H23 lung
COLO 205 colon = system: COLO 205 colon
ACHN renal = system: ACHN renal
OVCAR-8 ovarian = system: OVCAR-8 ovarian

## COc1ccc(Nc2ccnc3cc(Cl)ccc23)cc1CN(CCCl)CCCl
MDA-MB-468 breast
  GI50: 0.195 µM
  TGI: 0.84 µM

## Cn1cc(C2=C(c3cn(C)c4cc(Cl)ccc34)C(=O)NC2=O)c2ccccc21
MDA-MB-468 breast
  GI50: 0.0744 µM
  TGI: 5.96 µM

## CCc1cc(Nc2nccc(-c3c(-c4ccc(OC)c(C(=O)Nc5c(F)cccc5F)c4)nc4ccccn34)n2)c(OC)cc1N1CCC(N2CCN(S(C)(=O)=O)CC2)CC1
MDA-MB-468 breast
  GI50: > 82.7 µM
  TGI: > 100 µM

## OCCNc1oc(-c2ccccc2)nc1[P+](c1ccccc1)(c1ccccc1)c1ccccc1
UO-31 renal
  GI50: 20.4 µM
  TGI: 71 µM
HCC-2998 colon
  GI50: 3.3 µM
  TGI: 11.7 µM
SF-539 CNS
  GI50: 5.63 µM
  TGI: 19.5 µM
HCT-15 colon
  GI50: 29.8 µM
  TGI: > 100 µM
EKVX NSCLC
  GI50: 5.1 µM
  TGI: 28.3 µM
M14 melanoma
  GI50: 4.4 µM
  TGI: 20.2 µM
SK-OV-3 ovarian
  GI50: 3.58 µM
  TGI: 16.6 µM
UACC-62 melanoma
  GI50: 1.63 µM
  TGI: 4.28 µM
HOP-62 NSCLC
  GI50: 10 µM
  TGI: 34.4 µM
SF-295 CNS
  GI50: 10.5 µM
  TGI: 24.2 µM
SNB-75 CNS
  GI50: 1.85 µM
  TGI: 7.92 µM
SK-MEL-28 melanoma
  GI50: 2.59 µM
  TGI: 11.4 µM
SN12C renal
  GI50: 2.82 µM
  TGI: 8.53 µM
MOLT-4 leukemia
  GI50: 4.43 µM
  TGI: 35.1 µM
U251 CNS
  GI50: 3.28 µM
  TGI: 15.4 µM
NCI-H226 lung
  GI50: 4.05 µM
  TGI: 24.5 µM
KM12 colon
  GI50: 3.21 µM
  TGI: 11.2 µM
SW-620 colon
  GI50: 4.74 µM
  TGI: 35.5 µM
HL-60(TB) leukemia
  GI50: 1.57 µM
  TGI: 5.33 µM
NCI-H460 lung
  GI50: 3.29 µM
  TGI: 13.6 µM
SR leukemia
  GI50: 5.12 µM
  TGI: 22.8 µM
HS 578T breast
  GI50: 3.21 µM
  TGI: 13.3 µM
HT29 colon
  GI50: 3.04 µM
  TGI: 17.5 µM
A549 NSCLC
  GI50: 18.5 µM
  TGI: > 100 µM
PC-3 prostate
  GI50: 2.22 µM
  TGI: 11.1 µM
OVCAR-3 ovarian
  GI50: 2.35 µM
  TGI: 11 µM
DU-145 prostate
  GI50: 6.1 µM
  TGI: 21.3 µM
OVCAR-4 ovarian
  GI50: 3.68 µM
  TGI: 59.4 µM
IGROV1 ovarian
  GI50: 2.57 µM
  TGI: 8.53 µM
SF-268 CNS
  GI50: 3.4 µM
  TGI: 16.6 µM
786-0 renal
  GI50: 13.2 µM
  TGI: 29.8 µM
SK-MEL-2 melanoma
  GI50: 2.58 µM
  TGI: 7.18 µM
NCI/ADR-RES ovarian
  GI50: > 100 µM
  TGI: > 100 µM
HOP-92 NSCLC
  GI50: 1.35 µM
  TGI: 6.73 µM
NCI-H522 lung
  GI50: 2.15 µM
  TGI: 9.32 µM
MDA-MB-231 breast
  GI50: 1.87 µM
  TGI: 5.2 µM
RXF 393 renal
  GI50: 1.86 µM
  TGI: 9.35 µM
SNB-19 CNS
  GI50: 2.82 µM
  TGI: 10.9 µM
UACC-257 melanoma
  GI50: 2.65 µM
  TGI: 8.47 µM
CCRF-CEM leukemia
  GI50: 3.07 µM
  TGI: 19.9 µM
SK-MEL-5 melanoma
  GI50: 1.52 µM
  TGI: 2.92 µM
K-562 leukemia
  GI50: 2.5 µM
  TGI: 20.7 µM
LOX IMVI melanoma
  GI50: 3.93 µM
  TGI: 14.6 µM
CAKI-1 renal
  GI50: 11.5 µM
  TGI: 43.1 µM
MALME-3M melanoma
  GI50: 1.95 µM
  TGI: 6.52 µM
MCF7 breast
  GI50: 2.69 µM
  TGI: 12.5 µM
OVCAR-5 ovarian
  GI50: 5.06 µM
  TGI: 34.2 µM
HCT-116 colon
  GI50: 4.8 µM
  TGI: 35.1 µM
A498 renal
  GI50: 15.4 µM
  TGI: 48.2 µM
TK-10 renal
  GI50: 6 µM
  TGI: 23.1 µM
RPMI-8226 leukemia
  GI50: 0.956 µM
  TGI: 11.7 µM
BT-549 breast
  GI50: 2.51 µM
  TGI: 7.88 µM
MDA-MB-435
  GI50: 2.99 µM
  TGI: 11.3 µM
NCI-H23 lung
  GI50: 4.3 µM
  TGI: 23.8 µM
COLO 205 colon
  GI50: 2.14 µM
  TGI: 7.86 µM
MDA-MB-468 breast
  GI50: 1.08 µM
  TGI: 4.35 µM
ACHN renal
  GI50: 18.8 µM
  TGI: 85.1 µM
OVCAR-8 ovarian
  GI50: 3.79 µM
  TGI: 15.2 µM

## Nc1ccc(Sc2ccc3c4c2cccc4c(=O)n2c4ccccc4nc32)cc1
MDA-MB-468 breast
  GI50: 3.19 µM
  TGI: 20.8 µM
